Measurements: US20260159474A1, “Aminoindane Compounds and Compositions and Methods of Their Therapeutic Use” (Solvonis Therapeutics Ireland Holdings Limited, priority 2021, published 2026)
Entries after “also recorded” stand apart in the source; their conditions may differ.

Tests used:
[1] = biological target: T1, P-glycoprotein (P-gp, MDR1) (Homo sapiens, UniProt P08183); test: Bidirectional permeability and P-gp substrate assay in MDCKII-MDR1 cells; assay type: in vitro ADME; details: human, MDCK-MDR1, pH 7.4; efflux ratio, MDCKII-MDR1 cells; read-out: MDCKII-MDR1 B-A ratio
T1 construct: expressed in transfected cells; host or cells: MDCKII-MDR1 (Madin-Darby Canine Kidney clone II)
Method: Methods: A bidirectional permeability study was conducted to evaluate the apparent permeability (Papp) of therapeutic compounds. Additionally, the MDCKII-MDR1 cell line (Madin-Darby Canine Kidney clone II cell line heterologously expressing the human P-glycoprotein transporter) and mock cell line MDCKII were used to determine whether a compound acted as a P-gp substrate, in the absence and in the presence of a potent P-gp inhibitor. Test control items (digoxin, metoprolol, and atenolol) and control P-gp inhibitor (GF120918) stock solution were prepared in DMSO. Bidirectional assays (Apical to Basolateral [AB] and Basolateral to Apical [BA]) were run, in both the absence and presence of P-gp inhibitor GF120918 in MDCKII-MDR1 and mock cell line MDCKII, using as transport buffer HBSSH at a pH of 7.4 (n=3).
Compounds were tested at a single concentration (i.e. at […]) at one time point (i.e. 60 min). Alternative concentrations or time points may also be investigated. As reference compounds, digoxin (P-gp substrate), atenolol (low permeability) and metoprolol (high permeability) were included at a single concentration (e.g., 10 or […]) and at single time point (e.g., 60 min). Digoxin transport was evaluated in two directions (apical-to-basolateral [AB] and basolateral-to-apical [BA]) in the absence and presence of GF120918 or in mock cells, MDCKII (n=3). Atenolol and metoprolol were only tested in the AB direction in absence of P-gp inhibitor GF120918 or in mock cells, MDCKII (n=3). The integrity of the cell monolayer was evaluated after the permeability experiment using the paracellular permeability marker Lucifer yellow (LY) in the apical to basolateral direction in each well.
MDCKII or MDCKII-MDR1 cells were cultivated in DMEM (high glucose, GlutaMAXTM supplemented with pyruvate, 10% FBS HI and Pen/Strep). Cells were seeded onto microporous PET (Polyethylene Terephthalate) membranes in HTS 96-Multiwell Insert plates at a density of ˜175,000-245,000 cells/cm^2 (25000-35000 cells/well; 50 μL/well) in DMEM medium and incubated for 3-4 days at 37° C.-5% CO2. Medium was changed the day before the experiment.
Stock solutions of test items were prepared in DMSO at a concentration of 5 or 10 mM and stored at −20° C. until use. The potent P-gp inhibitor, GF120918 (stock solution 10 mM) and the reference controls digoxin, atenolol, metoprolol (stock solutions 3 or 10 mM) were prepared in DMSO and stored at −20° C. until use.
Donor working solutions of test items and reference controls were prepared at a concentration of 10 or 25 µM, diluting the stock solutions in HBSSH. Receiver working solutions contained transport buffer only. All working solutions were prepared such that the final concentration of DMSO was 1% (v/v). A donor working solution containing LY was also prepared in transport buffer at 100 µM.
MDCKII and MDCKII-MDR1 cells were preincubated (37° C., 15 to 30 minutes) in receiver working solutions containing transport buffer on apical (A) and basolateral (B) sides. Following pre-incubation, test items and control items (digoxin) transport were measured in two directions (apical to basolateral [AB]) and basolateral to apical [BA]), and these directions were performed in triplicate sets of wells, in both the absence and presence of […] GF120918 or mock MDCKII cells. For [AB] directional transport, 75 μL of donor working solution was added to the A (apical) compartment and 235 μL of receiver working solution was added to the B (basolateral) compartment. For [BA] directional transport, 235 μL donor working solution with test items or reference controls was added to the B compartment and 75 μL receiver working solution was added to the A compartment. Transport of permeability reference controls, atenolol and metoprolol, were measured in one direction (apical to basolateral [AB]) (n=3).
The cells were incubated (at 37° C., with shaking) for 60 minutes. […]

[2] = Rat body temperature after IP administration; assay type: in vivo, Sprague Dawley rats; details: 200 minutes after injection
Method: Methods and Procedure: This study was conducted in compliance with previously described procedures to assure data integrity, adherence to GLP regulations, and standard preclinical study and surgery procedures. The in vivo microdialysis technique was applied to measure the over-time variations of DA, 5-HT, and NE extracellular (EC) concentrations in conscious, freely-moving Sprague Dawley rats. At the end of each experimental session (200 minutes after injection), body temperature (° C.) of Sprague Dawley rats was monitored using a digital thermometer with a rectal probe.

[3] = MDMA at doses of 100-125 mg, literature; cited from earlier work
[4] = system: DAT/SERT; details: Simmler et al., Br J Pharmacol. 2013; cited from earlier work

T1 sequence (P08183 whole entry): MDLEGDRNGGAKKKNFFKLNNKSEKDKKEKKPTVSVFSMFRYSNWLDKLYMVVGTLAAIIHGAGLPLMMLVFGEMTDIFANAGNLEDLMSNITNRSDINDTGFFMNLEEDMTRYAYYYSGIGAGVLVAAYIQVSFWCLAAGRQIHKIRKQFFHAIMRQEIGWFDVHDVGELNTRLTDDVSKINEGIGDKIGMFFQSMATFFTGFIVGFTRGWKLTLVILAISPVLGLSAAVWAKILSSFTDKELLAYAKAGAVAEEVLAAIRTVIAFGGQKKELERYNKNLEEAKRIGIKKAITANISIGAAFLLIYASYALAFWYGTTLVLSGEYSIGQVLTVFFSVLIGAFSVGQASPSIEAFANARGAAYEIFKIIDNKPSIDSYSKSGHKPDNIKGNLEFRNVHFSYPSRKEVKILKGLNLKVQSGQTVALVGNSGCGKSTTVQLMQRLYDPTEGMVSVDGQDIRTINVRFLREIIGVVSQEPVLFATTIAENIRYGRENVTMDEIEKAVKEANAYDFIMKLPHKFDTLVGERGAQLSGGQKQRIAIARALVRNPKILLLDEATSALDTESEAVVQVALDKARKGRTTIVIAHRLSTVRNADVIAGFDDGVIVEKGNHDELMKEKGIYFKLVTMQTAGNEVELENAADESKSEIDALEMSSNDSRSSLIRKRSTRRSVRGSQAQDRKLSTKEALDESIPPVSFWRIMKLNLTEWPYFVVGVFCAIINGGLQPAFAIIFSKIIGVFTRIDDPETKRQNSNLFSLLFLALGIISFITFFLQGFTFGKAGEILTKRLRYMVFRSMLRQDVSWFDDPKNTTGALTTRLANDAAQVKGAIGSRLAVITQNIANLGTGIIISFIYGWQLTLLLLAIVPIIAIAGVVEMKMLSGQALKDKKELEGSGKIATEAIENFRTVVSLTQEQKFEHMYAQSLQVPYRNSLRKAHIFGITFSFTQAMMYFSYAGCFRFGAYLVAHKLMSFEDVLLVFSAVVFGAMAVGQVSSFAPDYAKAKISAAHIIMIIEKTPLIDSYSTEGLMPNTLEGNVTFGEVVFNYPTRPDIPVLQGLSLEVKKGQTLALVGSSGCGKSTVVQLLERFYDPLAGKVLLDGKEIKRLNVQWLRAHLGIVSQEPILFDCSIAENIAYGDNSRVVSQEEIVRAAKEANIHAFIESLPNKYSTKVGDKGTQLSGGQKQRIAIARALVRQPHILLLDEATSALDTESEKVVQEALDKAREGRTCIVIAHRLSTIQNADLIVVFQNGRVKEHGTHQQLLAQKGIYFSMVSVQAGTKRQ

Compound	efflux ratio at 60 min [1]	change in rat body temperature (rectal) relative to vehicle [2]	increase in blood pressure (diastolic) [3]	increase in heart rate [3]	DAT/SERT ratio [4]
COC(=O)c1ccc2c(c1)CC(N)C2 (stereo not shown) [CMP-405, 2-aminoindane-5-methylcarboxylate]	1.1	lower than the change observed following administration of MDMA; also recorded: significantly lower than the change in temperature caused by MDMA			
CNC(C)Cc1ccc2c(c1)OCO2 (stereo not shown) [MDMA]		1.6 °C	14.4-25 mmg	26-30 bpm	0.8
COc1ccc2c(c1)CC(N)C2 (stereo not shown) [MEAI, 5-methoxy-2-aminoindane]	1				
